Our source for the TGI and GI50 values is PubChem BioAssay (NCI).

Some test systems named below: COLO 205 colon; HCC-2998 colon; HL-60(TB) leukemia; HOP-62 NSCLC; K-562 leukemia; KM12 colon; OVCAR-3 ovarian; SK-MEL-28 melanoma; SK-OV-3 ovarian; SNB-19 CNS; UACC-257 melanoma; M14 melanoma; T-47D breast.
Common to all, as to experiment: inhibition of tumour cell growth, NCI panel, 48 h

The structures appear in SMILES notation. Values joined by “and” are separate entries in the source; they are usually repeats but may differ in a detail not shown here. Equal values may be shown once.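 Where inhibition never reached the appropriate level, the endpoint shown equals the highest concentration tested. Otherwise, values were interpolated linearly from a five-concentration, 48-hour dose response in 96-well plates. GI50 is the concentration that inhibits growth by half. At the TGI there is no net growth.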

As for `C=CCCCCCCCCC(=O)O`, the TGI with COLO 205 colon is 197 µM; with HCC-2998 colon, 202 µM; in the test with HL-60(TB) leukemia, 231 µM; in the test with HOP-62 NSCLC, 168 µM; in the test on K-562 leukemia, 426 µM; in the test with KM12 colon, 107 µM. In addition, the TGI in the test on OVCAR-3 ovarian came out at 176 µM; in the test with SK-MEL-28 melanoma, 322 µM; with SK-OV-3 ovarian it was 294 µM; with SNB-19 CNS, 362 µM; in the test with UACC-257 melanoma, 492 µM.

As for `Cc1ccc(-c2cc(-c3ccco3)c(C#N)c(=O)n2C2OC(CO)C(O)C(O)C2O)cc1` (centres undefined), the TGI with COLO 205 colon is > 100 µM; in the test on HCC-2998 colon, > 100 µM; in the test on HL-60(TB) leukemia it was > 100 µM; with HOP-62 NSCLC, 91.4 µM; in the test with K-562 leukemia, > 100 µM; with KM12 colon, > 100 µM. Further, the TGI in the test on M14 melanoma was > 100 µM; with OVCAR-3 ovarian, > 100 µM; in the test on SK-MEL-28 melanoma, > 100 µM; in the test with SK-OV-3 ovarian, 59.8 µM; with SNB-19 CNS it was > 100 µM; in the test on UACC-257 melanoma, > 100 µM.

Regarding `CN(C(=O)c1ccc(OCCCC(=O)O)c(Cl)c1Cl)C1CCCC1`, the TGI in the test with COLO 205 colon, in the test on HCC-2998 colon, with HL-60(TB) leukemia, with HOP-62 NSCLC, with K-562 leukemia and with KM12 colon was > 100 µM each time. For the same compound, the TGI with OVCAR-3 ovarian, in the test on SK-MEL-28 melanoma, in the test on SK-OV-3 ovarian, with SNB-19 CNS and with UACC-257 melanoma was > 100 µM throughout.

For `COc1cc(C=O)cc(O)c1O`, the TGI in the test with COLO 205 colon, in the test with HCC-2998 colon, with HL-60(TB) leukemia, in the test with HOP-62 NSCLC, in the test on K-562 leukemia and in the test with KM12 colon was > 100 µM in each case. For the same compound, the TGI in the test with M14 melanoma, with OVCAR-3 ovarian, with SK-MEL-28 melanoma, with SK-OV-3 ovarian, in the test on SNB-19 CNS and with UACC-257 melanoma was > 100 µM each time.

For `CCOC(=O)C(=O)NC12CC3CC(CC(C3)C1)C2`, the TGI in the test on COLO 205 colon, in the test on HCC-2998 colon, with HL-60(TB) leukemia, in the test on HOP-62 NSCLC, in the test with K-562 leukemia and in the test on KM12 colon was > 100 µM in each case. For the same compound, the TGI with M14 melanoma, in the test on SK-MEL-28 melanoma, with SK-OV-3 ovarian, with SNB-19 CNS and in the test with UACC-257 melanoma was > 100 µM each time.

As to `COc1cccc2c1C(=O)c1c(O)c3c(c(O)c1C2=O)C[C@@](O)(C(=O)CO)CC3OC1CC(NCCCC(OC(C)=O)OC(C)=O)C(O)C(C)O1` (some centres undefined), the GI50 in the test with HCC-2998 colon was 0.000324 µM; with K-562 leukemia, < 0.0001 µM; with KM12 colon, < 0.0001 µM; in the test with M14 melanoma it was < 0.0001 µM; with SK-OV-3 ovarian, 0.000298 µM; in the test with SNB-19 CNS, 0.000202 µM. For the same compound, the GI50 in the test on UACC-257 melanoma is 0.000314 µM. The TGI in the test on HCC-2998 colon is 0.00593 µM and 0.00191 µM; in the test with HL-60(TB) leukemia it was 0.0058 µM; in the test on HOP-62 NSCLC it was 0.00461 µM; with K-562 leukemia, 0.000729 µM; in the test with KM12 colon, 0.000187 µM; in the test on SK-MEL-28 melanoma, 0.00787 µM. Further, the TGI in the test on SK-OV-3 ovarian is > 1 µM; in the test on UACC-257 melanoma, 0.00739 µM and 0.00144 µM.

For the compound `CC(=O)Nc1ccc(Sc2nnc(NC(C)=O)s2)cc1`, the TGI in the test with COLO 205 colon, in the test on HCC-2998 colon, with HL-60(TB) leukemia, in the test on HOP-62 NSCLC, with K-562 leukemia and in the test with KM12 colon was > 100 µM each time. For the same compound, the TGI in the test with M14 melanoma, in the test on SK-MEL-28 melanoma, in the test with SK-OV-3 ovarian, with SNB-19 CNS, in the test with T-47D breast and in the test on UACC-257 melanoma was > 100 µM each time.

`O=[N+]([O-])C(=C/c1cccs1)/C(=C\c1cccs1)[N+](=O)[O-]`: the TGI was 2.93 µM in the test with COLO 205 colon; 2.58 µM in the test with HCC-2998 colon; 0.139 µM with HL-60(TB) leukemia; 5.39 µM in the test with HOP-62 NSCLC; > 100 µM with K-562 leukemia; 13.4 µM in the test on KM12 colon. Further, the TGI is 6.88 µM in the test on M14 melanoma; 21.7 µM in the test with OVCAR-3 ovarian; 2.32 µM in the test with SK-MEL-28 melanoma; 8.04 µM in the test with SK-OV-3 ovarian; 5.16 µM in the test on SNB-19 CNS; 7.74 µM in the test with T-47D breast. The TGI in the test on UACC-257 melanoma is 3.46 µM.

On to `Cn1c(=O)c(Cl)c(N=[N+]=[N-])c2ccccc21`, for which the TGI in the test with COLO 205 colon, in the test on HCC-2998 colon, with HOP-62 NSCLC, with K-562 leukemia, in the test on KM12 colon and with OVCAR-3 ovarian was > 100 µM in each case. Moreover, the TGI with SK-MEL-28 melanoma, with SK-OV-3 ovarian, in the test with SNB-19 CNS, with T-47D breast and in the test on UACC-257 melanoma was > 100 µM in each case.

On to `COC1C(O)C(C)OC(OC2CCC3(C)C(CCC4C3C(O)CC3(C)C(C5=CC(=O)OC5)CCC43O)C2)C1O` (centres undefined), for which the TGI amounted to 1.57 µM with COLO 205 colon; 4.91 µM in the test with HCC-2998 colon; 0.665 µM with HL-60(TB) leukemia; 0.473 µM with HOP-62 NSCLC; 5.28 µM in the test with K-562 leukemia; 6.12 µM in the test on KM12 colon. Moreover, the TGI was determined as 1.02 µM in the test on M14 melanoma; 0.553 µM in the test with OVCAR-3 ovarian; 1.62 µM in the test on SK-MEL-28 melanoma; 0.905 µM in the test with SK-OV-3 ovarian; 2.04 µM with SNB-19 CNS; 2.59 µM in the test on T-47D breast. The compound also returned a TGI with UACC-257 melanoma of 3.13 µM.

In the case of `O=C1c2ccccc2C(=O)N1CC(CN1C(=O)c2ccccc2C1=O)(C(=O)OCc1ccccc1)C(=O)OCc1ccccc1`, the TGI with COLO 205 colon, in the test with HCC-2998 colon, with HL-60(TB) leukemia, with HOP-62 NSCLC, in the test with KM12 colon and in the test with M14 melanoma was > 100 µM in each case. The TGI with OVCAR-3 ovarian, with SK-MEL-28 melanoma, in the test with SK-OV-3 ovarian, in the test with SNB-19 CNS and in the test on T-47D breast was > 100 µM each time.

For `CCOC(=O)C(OP(=O)(OCC)OCC)C(F)(F)F` (centres undefined), the TGI in the test with HCC-2998 colon, with HL-60(TB) leukemia, in the test on HOP-62 NSCLC, with K-562 leukemia, in the test with KM12 colon and in the test on M14 melanoma was > 100 µM throughout. Moreover, the TGI with OVCAR-3 ovarian, in the test on SK-MEL-28 melanoma, in the test with SK-OV-3 ovarian, with SNB-19 CNS, in the test with T-47D breast and in the test on UACC-257 melanoma was > 100 µM throughout.
